Data from patent publication US20170348349A1, “Modulation of Amyloid Beta Toxicity and Processing By Xenon Gas” (NOBLIS THERAPEUTICS, INC., priority 2016, published 2017).
Read-outs that look alike come from different tables or passages of the source.

What was measured:
[1] = target: T1, Amyloid-beta protein (1-42) (Homo sapiens, UniProt P05067); test: Amyloid-beta (1-42) aggregation under anaesthetic gas: electrophoresis/western blot of monomer, LMW and HMW bands; assay type: biochemical; settings: Xenon (50%) in air balanced with 5% CO2, 37° C., 24 hours
T1 construct: Amyloid-beta protein (1-42) hydrochloride salt (Bachem AG, Switzerland); purchased Bachem AG, Switzerland
T1 sequence (P05067 672-713 limits assumed): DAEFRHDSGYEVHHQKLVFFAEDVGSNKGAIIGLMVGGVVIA
Description: For detection of monomer formation Amyloid-beta protein (1-42) hydrochloride salt (Bachem AG, Switzerland) stored at −80° C. was removed and placed on ice. 1,1,1,3,3,3-hexafluoro-2-propanol (HFIP) (Sigma-Aldrich, Poole, UK) was placed on ice in the hood and allow to cool.110 HFIP was added to 0.5 mg amyloid- ? to produce a final concentration of 1 mM. The HFIP plus amyloid-beta solution was mixed on the vortex to ensure no solid remained on the vial edges. The HFIP plus amyloid-beta solution was incubated at room temperature for 60 minutes with the vial closed. The solution was then placed on ice for 10 minutes. The HFIP plus amyloid-beta solution was aliquoted into non-siliconized micro-centrifuge tubes amyloid-beta1-42). […]
When required peptide film containing tubes were removed from the −80° C. freezer and placed on ice. […] The protein was produced as above and was analysed immediately this was termed 0 hours. […]
The treated samples were centrifuged at 14,000 rpm at 4° C. for 10 minutes. […] The bands were detected with horseradish peroxidase-linked Ig anti-rabbit antibody (concentration 1:1000) (New England Biolab, Hitchin, UK) and visualised with the enhanced chemiluminesence system (ECL, Amersham Biosciences, Little Chalfont, UK). The monomer, LMW and HMW bands were located using a protein ladder to determine the molecular mass and were then quantified by densitometry (Adobe Photoshop). […]

[2] = cited from earlier work

Amyloid β aggregation (electrophoresis stain, FIG. 2A) [1]: reduces Amyloid β aggregation
SMILES: [Xe] [xenon]
safety ([2]; 12 healthy volunteers, xenon in increasing concentrations 10%, 20%, 30%, 40% (Peterson-Felix et al.)): Safety was reported
adverse events ([2]; six healthy male volunteers, 21% xenon for 20 minutes (Yagi et al.)): no adverse events
adverse events ([2]; ten healthy adults, xenon 25%, 30% and 35%, each for 5-minute intervals (Sclabassi et al.)): no adverse events
